This passage reports Ki results from patent US8178690B2, “Compounds and methods for inhibiting the interaction of BCL proteins with binding partners” (Infinity Pharmaceuticals, Inc., priority 2006, dated 2012).

The target of one experiment is Bcl-2 (Homo sapiens, UniProt P10415). As to the kind of experiment: Bcl-2 binding affinity analysis (fluorescence polarization binding assay). Particulars: read-out: BcI2 (Ki, Bcl-2 binding affinity).
The next experiment deals with Bcl-xL (Homo sapiens, UniProt Q07817). The experiment in a line: Bcl-xL binding affinity analysis (fluorescence polarization binding assay). Particulars: read-out: BcI-XI (Ki, Bcl-xL binding affinity).
Bcl-xL, sequence (Q07817 whole entry): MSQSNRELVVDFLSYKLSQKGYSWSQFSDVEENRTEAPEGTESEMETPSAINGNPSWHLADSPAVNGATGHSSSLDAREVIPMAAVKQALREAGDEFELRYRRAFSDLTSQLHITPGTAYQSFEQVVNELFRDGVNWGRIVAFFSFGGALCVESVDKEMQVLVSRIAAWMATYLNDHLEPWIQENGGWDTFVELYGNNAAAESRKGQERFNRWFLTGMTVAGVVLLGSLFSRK

Bcl-2, sequence (P10415 whole entry): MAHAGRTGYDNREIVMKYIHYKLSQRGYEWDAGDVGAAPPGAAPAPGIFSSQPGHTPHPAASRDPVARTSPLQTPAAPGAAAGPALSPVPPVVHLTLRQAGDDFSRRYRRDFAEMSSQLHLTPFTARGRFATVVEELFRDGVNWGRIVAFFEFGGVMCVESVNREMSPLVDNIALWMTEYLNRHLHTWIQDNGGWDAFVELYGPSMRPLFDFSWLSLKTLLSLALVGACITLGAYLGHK

Consider `COc1c(CN2O[C@@H](CO)[C@@H]([C@H](C)O)[C@H]2C(=O)N[C@H]2C[C@H]3C[C@@H]([C@@H]2C)C3(C)C)cccc1-c1cc(C(=O)N[C@@H](CC(C)C)CN2CCN(C)CC2)cc(N(C)C)c1` [Compound 314], for which the figures for the inhibitory constant (Ki) on Bcl-2 and at Bcl-xL were < 1 nM and < 1000 nM, respectively.
Consider `COc1c(CN2O[C@@H](CO)[C@@H]([C@H](C)O)[C@H]2C(=O)N[C@H]2C[C@H]3C[C@@H]([C@@H]2C)C3(C)C)cccc1-c1cc(C(=O)N[C@@H](CC(C)C)CN2CCCC2)cc(N(C)C)c1` [Compound 320], for which the Ki at Bcl-2 is < 1 nM; at Bcl-xL, < 1000 nM.
Taken in the same sequence, the figures for `COc1c(CN2O[C@@H](CO)[C@@H]([C@H](C)O)[C@H]2C(=O)N[C@H]2C[C@H]3C[C@@H]([C@@H]2C)C3(C)C)cc(Cl)cc1-c1cc(C(=O)NCCc2ccccc2)cc(N(C)C)c1` [Compound 321] were > 9 nM and 5000 to 10000 nM.
